For six molecules, EC50 results are on record in ChEMBL document CHEMBL1158923, “Cytotoxic metabolites from the sponge Ianthella basta collected in Papua New Guinea” (1990).

≈ marks a conversion by molar mass, not a printed value.

The test has as its system L1210. In words: Cytotoxicity against mouse L1210 cells. It counts as functional. The conditions noted are these: read-out: ED50 (the source's name).
`O=C1N/C=C/c2ccc(c(Br)c2)Oc2cc(cc(Br)c2O)CCNC(=O)/C(=N/O)Cc2cc(Br)c(c(Br)c2)Oc2cc(cc(Br)c2O)C/C1=N\O` [BASTADIN 4]: the EC50 was found to be 5 µg/mL (≈ 4.92 µM).

On to `O=C1NCCc2cc(Br)c(O)c(c2)Oc2ccc(cc2Br)[C@H](O)CNC(=O)/C(=N/O)Cc2cc(Br)c(O)c(c2)Oc2c(Br)cc(cc2Br)C/C1=N\O` [BASTADIN 8], for which the EC50 was determined as 5 µg/mL (≈ 4.83 µM). On to `O=C1NCCc2cc(Br)c(O)c(c2)Oc2c(Br)cc(cc2Br)C(O)CNC(=O)/C(=N/O)Cc2cc(Br)c(O)c(c2)Oc2ccc(cc2Br)C/C1=N\O` (stereo unspecified) [BASTADIN 9], for which the EC50 worked out at 5 µg/mL (≈ 4.83 µM).

As for `CO/N=C1\Cc2cc(Br)c(OC)c(c2)Oc2c(Br)cc(cc2Br)C/C(=N\OC)C(=O)NCCc2cc(Br)c(OC)c(c2)Oc2ccc(cc2Br)/C=C/NC1=O` [TETRAMETHYLBASTADIN 4], the EC50 came to 5 µg/mL (≈ 4.66 µM).

On to `CO/N=C1/Cc2cc(Br)c(c(Br)c2)Oc2cc(cc(Br)c2OC)C/C(=N\OC)C(=O)NCC(O)c2ccc(c(Br)c2)Oc2cc(cc(Br)c2OC)CCNC1=O` (stereo unspecified) [TETRAMETHYLBASTADIN 8], for which the EC50 came to 5 µg/mL (≈ 4.58 µM).

As for `CO/N=C1\Cc2ccc(c(Br)c2)Oc2cc(cc(Br)c2OC)C/C(=N\OC)C(=O)NCC(O)c2cc(Br)c(c(Br)c2)Oc2cc(cc(Br)c2OC)CCNC1=O` (stereo unspecified) [TETRAMETHYLBASTADIN 9], the EC50 came to 5 µg/mL (≈ 4.58 µM).
